In patent US20220041559A1, “BENZO-AND PYRIDO-PYRAZOLES AS PROTEIN KINASE INHIBITORS” (ROTTAPHARM BIOTECH S.R.L., priority 2019, published 2022):
Read-outs that look alike come from different tables or passages of the source.

Key:
[1] = test system: U87MG-luc tumor cells; assay: Reduction of tumor growth in intracranial U87MG-luc glioblastoma bearing mice; type: in vivo, athymic Nude mice; settings: 50 mg/kg orally once a day, days 9-19
Protocol: Human U87MG cells (Glioblastoma Cancer cell line) were engineered to express the luciferase gene (U87MG-luc). Cultured U87MG-luc tumor cells were intracranially injected in athymic Nude mice. Eight days from injection mice were randomised on the basis of luminescence values emitted by luciferase-expressing U87M-luc tumor cells and divided into 2 treatment groups. The treatment started on day 9 and lasted 10 days. Mice were orally dosed with vehicle or with compound 5 of invention (50 mg/kg, once a day). The tumor growth was evaluated by real-time Bioluminescence Imaging at the end of the treatments period (day 19) and on day 26 and 33, form the cell injection. The tumour growth was reduced in mice treated with compound 5 compared to mice treated with vehicle alone.

[2] = target: T1, VEGFR2 (KDR) kinase (Homo sapiens, UniProt P35968); assay: ADP-Glo in vitro kinase assay, VEGFR2 kinase inhibition; type: biochemical; settings: ATP 50 μM, 30 minutes at room temperature
T1 construct: purchased SignalChem
T1 sequence (P35968 20-1356): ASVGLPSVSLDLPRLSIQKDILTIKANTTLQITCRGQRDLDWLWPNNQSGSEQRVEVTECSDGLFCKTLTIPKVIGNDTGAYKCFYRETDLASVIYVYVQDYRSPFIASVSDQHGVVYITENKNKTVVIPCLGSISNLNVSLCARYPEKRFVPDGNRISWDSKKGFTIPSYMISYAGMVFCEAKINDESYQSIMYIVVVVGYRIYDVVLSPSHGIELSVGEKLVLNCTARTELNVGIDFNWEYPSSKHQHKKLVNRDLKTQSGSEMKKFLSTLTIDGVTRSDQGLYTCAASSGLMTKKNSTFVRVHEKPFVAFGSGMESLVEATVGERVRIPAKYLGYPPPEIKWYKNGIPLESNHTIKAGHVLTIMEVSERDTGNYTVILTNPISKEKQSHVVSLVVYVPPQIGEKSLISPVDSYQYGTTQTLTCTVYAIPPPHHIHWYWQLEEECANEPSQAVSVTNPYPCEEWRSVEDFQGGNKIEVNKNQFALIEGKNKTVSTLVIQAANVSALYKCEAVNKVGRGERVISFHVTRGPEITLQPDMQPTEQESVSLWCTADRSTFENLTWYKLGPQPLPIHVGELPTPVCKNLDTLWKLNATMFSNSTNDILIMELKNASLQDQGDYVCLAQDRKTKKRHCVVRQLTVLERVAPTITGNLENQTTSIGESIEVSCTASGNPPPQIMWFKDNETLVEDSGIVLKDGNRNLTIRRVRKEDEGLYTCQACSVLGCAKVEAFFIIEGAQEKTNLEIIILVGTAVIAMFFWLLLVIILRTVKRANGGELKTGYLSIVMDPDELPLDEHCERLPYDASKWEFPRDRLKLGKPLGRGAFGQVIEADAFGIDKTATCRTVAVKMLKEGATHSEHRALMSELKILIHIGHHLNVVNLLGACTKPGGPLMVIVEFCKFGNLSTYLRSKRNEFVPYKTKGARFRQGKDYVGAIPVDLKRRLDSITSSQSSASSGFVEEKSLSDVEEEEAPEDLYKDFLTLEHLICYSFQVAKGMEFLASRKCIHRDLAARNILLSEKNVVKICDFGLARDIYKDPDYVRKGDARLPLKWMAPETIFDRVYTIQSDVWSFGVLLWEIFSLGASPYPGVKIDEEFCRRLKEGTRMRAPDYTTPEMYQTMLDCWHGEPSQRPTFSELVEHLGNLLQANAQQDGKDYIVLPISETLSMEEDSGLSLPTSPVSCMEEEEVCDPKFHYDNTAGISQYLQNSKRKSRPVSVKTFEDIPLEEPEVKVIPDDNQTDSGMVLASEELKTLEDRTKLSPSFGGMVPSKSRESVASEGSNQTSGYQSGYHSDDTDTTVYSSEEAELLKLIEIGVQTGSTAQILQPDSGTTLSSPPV
Protocol: (§1) The ADP-Glo™ Kinase Assay (Promega), monitoring ADP produced in the kinase reaction, was performed in two steps. In the first one, after the kinase reaction, the ADP-Glo™ Reagent is added to terminate the kinase reaction and deplete the remaining ATP. In the second step, the Kinase Detection Reagent is added to simultaneously convert ADP to ATP (ATPn or newly synthesized ATP) and introduce luciferase and luciferin, allowing the ATPn to be measured (luciferase/luciferin reaction). The amount of light generated correlates with the amount of ATPn (indirectly with the ADP produced in kinase reaction).
Kinase reaction was performed in 10 μl in a white 384-well plate, inhibitor solutions in DMSO/Kinase buffer (40 mM Tris-Cl, 20 mM MgCl2, 0.1 mg/ml BSA, 50 μM DTT, pH 7.5) and VEGFR2 (KDR) kinase in Kinase buffer (SignalChem, 0.5 ng/μl final concentration in assay) were pre-incubate 15 minutes at room temperature. At the kinase concentration selected, a signal-to negative control ratio >10 was calculated, according to supplier indication. In samples representing the Total enzymatic activity or the negative control (no enzyme), inhibitor solution was replaced by diluents (1 DMSO in kinase buffer, final concentration) or ultra-pure water, respectively.
The range of inhibitor concentrations was from 10^−11 M up to 3×10^−6 M (final concentration in assay) and each experimental point was performed in duplicate.
To start the reaction, a substrate/ATP mix (50 μM final concentration, near to ATP Km value) was added to each sample and after 30 minutes incubation at room temperature, ADP-Glo™ Reagent and Kinase Detection Reagent, incubated in sequence according to the respective incubation time and supplier indication, allowed to stop and develop the kinase reaction. The luminescence was measured with a plate-reading luminometer (Envision 2104 Multilabel reader, PerkinElmer). The percentage of inhibition was calculated towards the Total enzymatic activity and the corresponding curves were analyzed by non linear curve fitting (GraphPad software, version 7 for Windows), allowing to calculate the IC50 value±standard error of the value

[3] = Pharmacokinetics in CD1 mice, iv and po; type: in vivo; settings: 3 mg/kg; for Kp: brain and plasma, read-out: B/P (brain to plasma ratio); for half-life: read-out: t½* (converted)
[4] = target: human FynB (Homo sapiens, UniProt P06241); assay: Inhibition of FynB-induced Tau(Y18)-phosphorylation (cell-based assay, HEK293)
Sequence of human FynB (P06241 271-524 limits assumed): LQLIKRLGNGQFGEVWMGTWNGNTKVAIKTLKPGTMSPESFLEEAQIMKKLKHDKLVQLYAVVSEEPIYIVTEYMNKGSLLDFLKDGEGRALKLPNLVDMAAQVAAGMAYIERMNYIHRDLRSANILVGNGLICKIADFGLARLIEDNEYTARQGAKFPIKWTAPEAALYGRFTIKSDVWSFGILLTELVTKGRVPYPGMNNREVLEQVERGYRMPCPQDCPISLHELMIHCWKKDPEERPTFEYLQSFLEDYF
Protocol: HEK293 cells (Human Embryonic Kidney 293) were seeded at 6×10^5 in poly-D-lysine 12 w microplates and grown adherent in medium DMEM/10% FBS at 37° C. with 5% CO2. After 24 h, cells were transfected in order to over-express either constitutively active form of human FynB and Tau protein (isoform 0N4R), through an optimized Lipofectamine® 3000 Transfection protocol (Life Technologies™). A non-transfected sample (negative control) was included in every experiment.
Twenty-four hours from transfection, treatments of cells were performed by adding fresh medium containing diluent (DMSO 0.1% final concentration) or test compounds. The incubation was carried out for 6 or 24 hours at 37° C. with 5% CO2. All experimental conditions were performed in duplicate.
At the end of the incubation, the medium was removed and cellular lysates were obtained by adding M-PER lysis buffer containing a 1× Protease/Phosphatase inhibitors cocktail. Then, lysates were transferred into Eppendorf tubes, sonicated and stored at −80° C.
Protein content was measured by Bradford method. Lysates were analyzed by a customized ELISA assay for Tau phosphorylation (Tyrosine 18 residue-Fyn mediated) and Total amount determination. The net OD values were used to calculate the inhibitory effect of compounds.

[5] = target: T2, YES kinase (Homo sapiens, UniProt P07947); assay: ADP-Glo in vitro kinase assay, YES kinase inhibition; type: biochemical; settings: ATP 50 μM, 30 minutes at room temperature
T2 construct: purchased Thermo Fisher
T2 sequence (P07947 whole entry): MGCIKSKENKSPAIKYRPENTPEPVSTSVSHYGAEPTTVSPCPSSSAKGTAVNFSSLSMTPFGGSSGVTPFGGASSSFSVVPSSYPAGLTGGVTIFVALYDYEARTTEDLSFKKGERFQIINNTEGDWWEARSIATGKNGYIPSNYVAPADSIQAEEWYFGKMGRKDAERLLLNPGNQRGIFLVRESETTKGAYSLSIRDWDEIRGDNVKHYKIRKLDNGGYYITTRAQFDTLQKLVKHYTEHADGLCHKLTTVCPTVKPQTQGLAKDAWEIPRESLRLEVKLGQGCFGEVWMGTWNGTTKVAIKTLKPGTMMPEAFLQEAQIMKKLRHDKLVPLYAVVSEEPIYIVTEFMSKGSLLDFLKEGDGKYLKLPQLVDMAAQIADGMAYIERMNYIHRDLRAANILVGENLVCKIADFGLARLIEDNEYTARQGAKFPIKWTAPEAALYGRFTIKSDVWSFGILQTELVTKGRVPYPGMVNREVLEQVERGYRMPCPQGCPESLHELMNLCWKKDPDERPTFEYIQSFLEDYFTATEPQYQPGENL
Protocol: as §1
Kinase reaction was performed in 10 μl in a white 384-well plate, inhibitor solutions in DMSO/Kinase buffer (40 mM Tris-Cl, 20 mM MgCl2, 0.1 mg/ml BSA, 50 μM DTT, pH 7.5) and YES kinase in Kinase buffer (Thermo Fisher, 0.5 ng/μl final concentration in assay) were pre-incubate 15 minutes at room temperature. At the kinase concentration selected, a signal-to negative control ratio >10 was calculated, according to supplier indication. […]
The range of inhibitor concentrations was from 10^−10 M up to 10^−5 M (final concentration in assay) and each experimental point was performed in duplicate. […] The luminescence was measured with a plate-reading luminometer (Envision 2104 Multilabel reader, PerkinElmer). […]

CN1CCC(c2ccc(C(=O)Nc3n[nH]c4nc(Nc5ccccc5F)ccc34)cc2)CC1 [Compound 5, N-(6-((2-fluorophenyl)amino)-1H-pyrazolo[3,4-b]pyridin-3-yl)-4-(1-methylpiperidin-4-yl)benzamide]
inhibition of tumour growth (percentage of radiance inhibition) ([1]; day 19): 24.9% | inhibition of tumour growth (percentage of radiance inhibition) ([1]; day 26): 34.4% | inhibition of tumour growth (percentage of radiance inhibition) ([1]; day 33): 60.4% | IC50 [2]: 0.082 µM | Tlast ([3]; iv): 24 h | Kp ([3]; mouse, calculated on AUC iv): 1.2 | Kp ([3]; mouse, calculated on AUC po): 1.4 | AUC(0-inf) ([3]; mouse, plasma, iv): 1640 ng·h/mL | AUC(0-t) ([3]; mouse, plasma, iv): 1620 ng·h/mL | clearance ([3]; mouse, plasma, iv, read-out: CLp): 30.4 mL/min/kg | Vd ([3]; mouse, plasma, iv, read-out: Vz): 10.2 L/kg | half-life ([3]; mouse, plasma, iv): 3.9 h | AUC(0-inf) ([3]; mouse, plasma, po): 1180 ng·h/mL | AUC(0-t) ([3]; mouse, plasma, po): 1170 ng·h/mL | Cmax ([3]; mouse, plasma, po): 331 nM | Tmax ([3]; mouse, plasma, po): 2 h | bioavailability ([3]; mouse, plasma, po): 72% | half-life ([3]; mouse, plasma, po): 4 h | Tlast ([3]; po): 24 h | IC50 ([4]; HEK293 over-expressing FynB and Tau 0N4R, incubation 6 or 24 hours, ELISA): 0.3 µM | Inhibition of FynB-induced Tau(Y18)-phosphorylation, result in words ([4]; summary of Table 20): best inhibitors | IC50 [5]: 0.0036 µM
